Source: the supplement of paper PMC10307832

Legend:
Experiment in all cases: relative viability (nuclei count vs DMSO), 5 days (fraction); higher = more cells survive
IPA-3 + Linsitinib = compound: C1=CC=C2C(=C1)C=CC(=C2SSC3=C(C=CC4=CC=CC=C43)O)O [IPA-3] + C[C@]1(O)C[C@@H](c2nc(-c3ccc4ccc(-c5ccccc5)nc4c3)c3c(N)nccn32)C1 [Linsitinib] (partner 1 µM)
In short: (§1)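 Each reported value is a median over duplicate plates. It expresses relative viability: treated-well nuclei count divided by vehicle-well nuclei count. Lung cancer cell lines in 1536-well plates were dosed by pin tool a day after seeding, alone with one drug or with a fixed anchor-drug dose plus five library-drug doses (not always all listed) in √10 steps, and nuclei were counted after 5 days.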

IPA-3 + Olaparib = compound: C1=CC=C2C(=C1)C=CC(=C2SSC3=C(C=CC4=CC=CC=C43)O)O [IPA-3] + O=C(c1cc(Cc2n[nH]c(=O)c3ccccc23)ccc1F)N1CCN(C(=O)C2CC2)CC1 [Olaparib] (partner 8 µM)
In short: as §1

Doramapimod + Dasatinib = compound: Cc1ccc(-n2nc(C(C)(C)C)cc2NC(=O)Nc2ccc(OCCN3CCOCC3)c3ccccc23)cc1 [Doramapimod] + Cc1nc(Nc2ncc(C(=O)Nc3c(C)cccc3Cl)s2)cc(N2CCN(CCO)CC2)n1 [Dasatinib] (partner 0.075 µM)
In short: as §1

Doramapimod + Alpelisib = compound: Cc1ccc(-n2nc(C(C)(C)C)cc2NC(=O)Nc2ccc(OCCN3CCOCC3)c3ccccc23)cc1 [Doramapimod] + Cc1nc(NC(=O)N2CCC[C@H]2C(N)=O)sc1-c1ccnc(C(C)(C)C(F)(F)F)c1 [Alpelisib] (partner 2 µM)
In short: as §1

Row | Cell Line | relative viability (IPA-3 + Linsitinib; first compound 0.2 µM) | relative viability (IPA-3 + Linsitinib; first compound 0.6325 µM) | relative viability (IPA-3 + Linsitinib; first compound 2 µM) | relative viability (IPA-3 + Linsitinib; first compound 6.325 µM) | relative viability (IPA-3 + Linsitinib; first compound 20 µM) | relative viability (IPA-3 + Olaparib; first compound 0.2 µM) | relative viability (IPA-3 + Olaparib; first compound 0.6325 µM) | relative viability (IPA-3 + Olaparib; first compound 6.325 µM) | relative viability (IPA-3 + Olaparib; first compound 20 µM) | relative viability (Doramapimod + Dasatinib; first compound 0.02 µM) | relative viability (Doramapimod + Dasatinib; first compound 0.06325 µM) | relative viability (Doramapimod + Dasatinib; first compound 0.2 µM) | relative viability (Doramapimod + Dasatinib; first compound 0.6325 µM) | relative viability (Doramapimod + Dasatinib; first compound 2 µM) | relative viability (Doramapimod + Alpelisib; first compound 0.02 µM) | relative viability (Doramapimod + Alpelisib; first compound 0.06325 µM) | relative viability (Doramapimod + Alpelisib; first compound 0.2 µM) | relative viability (Doramapimod + Alpelisib; first compound 0.6325 µM) | relative viability (Doramapimod + Alpelisib; first compound 2 µM) | relative viability (IPA-3 + Olaparib; first compound 2 µM)
1 | NCI-H1792 | 0.626 | 0.449 | 0.693 | 0.518 | 0.666 | 0.506 | 0.48 | 0.395 | 0.225 | 0.727 | 0.645 | 0.713 | 0.645 | 0.654 | 0.606 | 0.658 | 0.578 | 0.713 | 0.521 | 
2 | LXF-289 | 1.09 | 0.961 | 0.951 | 1.02 | 1.11 | 1.22 | 1 | 1.07 | 1.23 | 0.229 | 0.216 | 0.207 | 0.252 | 0.247 | 1.03 | 0.992 | 1.01 | 1.02 | 0.956 | 1.09
3 | HCC-827 | 0.916 | 0.943 | 0.935 | 0.917 | 0.925 | 0.818 | 0.579 | 0.737 | 0.638 | 0.272 | 0.238 | 0.286 | 0.355 | 0.142 | 0.931 | 1.01 | 0.97 | 1.01 | 0.612 | 0.557
4 | EMC-BAC-2 | 0.855 | 0.808 | 0.884 | 0.804 | 0.907 | 0.5 | 0.468 | 0.459 | 0.412 | 0.451 | 0.279 | 0.297 | 0.419 | 0.283 | 0.75 | 0.736 | 0.727 | 0.761 | 0.695 | 0.447
5 | NCI-H520 | 1.02 | 0.951 | 1.03 | 0.855 | 0.982 | 0.322 | 0.278 | 0.367 | 0.298 | 0.183 | 0.166 | 0.148 | 0.213 | 0.182 | 0.883 | 0.822 | 0.954 | 0.832 | 0.807 | 
6 | NCI-H1755 | 1.03 | 0.94 | 0.981 | 0.984 | 1.04 | 0.879 | 0.851 | 0.849 | 0.895 | 0.458 | 0.438 | 0.369 | 0.4 | 0.344 | 0.907 | 0.884 | 0.989 | 0.98 | 0.922 | 0.804
7 | NCI-H1993 | 0.707 | 0.688 | 0.761 | 0.782 | 0.612 | 1.22 | 1.08 | 1.23 | 1.08 | 0.885 | 0.638 | 0.505 | 0.705 | 0.559 | 0.765 | 0.617 | 0.707 | 0.626 | 0.664 | 0.995
8 | NCI-H23 | 0.613 | 0.667 | 0.522 | 0.603 | 0.645 | 0.196 | 0.277 | 0.323 | 0.187 | 0.734 | 0.709 | 0.856 | 0.836 | 0.759 | 0.711 | 0.64 | 0.753 | 0.867 | 0.59 | 0.379
9 | NCI-H1437 | 1.25 | 0.933 | 0.988 | 0.975 | 1.3 | 0.629 | 0.597 | 0.608 | 0.565 | 0.466 | 0.459 | 0.437 | 0.596 | 0.323 | 0.904 | 1.01 | 0.915 | 0.926 | 0.965 | 0.639
10 | SK-MES-1 | 1.13 | 1.01 | 1.07 | 1.07 | 1.02 | 0.763 | 0.694 | 0.498 | 0.241 | 0.374 | 0.406 | 0.413 | 0.41 | 0.33 | 0.87 | 0.765 | 0.766 | 0.869 | 0.675 | 0.652
11 | NCI-H2405 | 0.953 | 0.923 | 0.936 | 0.912 | 1.03 | 0.994 | 0.832 | 0.865 | 0.9 | 0.222 | 0.219 | 0.2 | 0.403 | 0.188 | 0.82 | 0.718 | 0.715 | 1.18 | 0.678 | 0.939
12 | NCI-H2023 | 0.85 | 0.681 | 0.841 | 0.735 | 0.921 | 0.514 | 0.503 | 0.547 | 0.395 | 0.601 | 0.521 | 0.533 | 0.645 | 0.512 | 0.498 | 0.54 | 0.503 | 0.617 | 0.503 | 0.624
13 | NCI-H838 | 1.34 | 0.983 | 1.1 | 0.978 | 1.13 | 0.904 | 0.723 | 0.667 | 0.735 | 0.279 | 0.327 | 0.315 | 0.326 | 0.298 | 0.973 | 0.953 | 1 | 1.09 | 0.971 | 0.776
14 | NCI-H661 | 0.52 | 0.466 | 0.712 | 0.598 | 0.646 | 0.784 | 0.705 | 0.716 | 0.738 | 0.703 | 0.855 | 1.04 | 1.19 | 0.909 | 0.593 | 0.732 | 0.618 | 1.04 | 0.515 | 0.786
15 | NCI-H1734 | 0.995 | 0.849 | 0.884 | 0.92 | 1.07 | 0.701 | 0.586 | 0.587 | 0.513 | 0.443 | 0.405 | 0.426 | 0.509 | 0.39 | 0.603 | 0.567 | 0.559 | 0.629 | 0.533 | 0.577
16 | NCI-H596 | 1.3 | 0.993 | 1.04 | 1.09 | 1.14 | 0.638 | 0.708 | 0.768 | 0.748 | 0.524 | 0.643 | 0.538 | 0.738 | 0.52 | 0.486 | 0.502 | 0.469 | 0.529 | 0.431 | 0.773
17 | NCI-H1944 | 1.2 | 1.12 | 1.23 | 1.48 | 1.3 | 0.452 | 0.409 | 0.435 | 0.395 | 0.213 | 0.231 | 0.193 | 0.232 | 0.216 | 0.756 | 0.829 | 0.765 | 0.829 | 0.71 | 0.405
18 | LK-2 | 0.553 | 0.436 | 0.595 | 0.526 | 0.518 | 0.831 | 0.615 | 0.988 | 0.938 | 0.241 | 0.278 | 0.202 | 0.213 | 0.22 | 1.03 | 0.906 | 0.751 | 0.737 | 0.76 | 0.788
19 | HCC-15 | 0.934 | 0.81 | 0.951 | 0.888 | 0.918 | 0.842 | 0.699 | 0.741 | 0.728 | 0.56 | 0.598 | 0.634 |  | 0.595 | 0.854 | 0.801 | 0.884 | 0.906 | 0.775 | 0.694
20 | NCI-H727 | 0.265 | 0.186 | 0.271 | 0.34 | 0.226 | 0.659 | 0.946 | 0.656 | 0.698 | 0.352 | 0.341 | 0.283 | 0.353 | 0.388 | 0.5 | 0.587 | 0.598 | 0.675 | 0.528 | 0.638
21 | HOP-62 | 0.903 | 1.07 | 0.754 | 1.05 | 1.2 | 0.848 | 0.401 | 0.392 | 0.274 | 0.618 | 0.705 | 0.633 | 0.843 | 0.594 | 0.898 | 1.14 | 0.896 | 0.975 | 0.874 | 0.47
22 | NCI-H3122 | 1.05 | 1.01 | 0.961 | 1.08 | 1.05 | 0.655 | 0.608 | 0.644 | 0.588 | 0.762 | 0.779 | 0.78 | 0.936 | 0.727 | 0.952 | 0.831 | 0.756 | 0.776 | 0.863 | 0.57
23 | NCI-H1395 | 1.2 | 1.04 | 1.19 | 1.02 | 1.11 | 0.507 | 0.456 | 0.474 | 0.457 | 0.413 | 0.433 | 0.401 | 0.546 | 0.363 | 1.07 | 1.08 | 0.93 | 1.14 | 0.938 | 0.465
24 | NCI-H647 | 1.52 | 1.01 | 1.11 | 0.641 | 0.38 | 0.725 | 0.496 | 0.196 | 0.0974 | 0.179 | 0.19 | 0.157 | 0.21 | 0.147 | 1.26 | 1.15 | 1.14 | 1.12 | 1.03 | 0.59
25 | NCI-H650 | 0.89 | 0.966 | 0.877 | 0.788 | 1.07 | 0.473 | 0.391 | 0.379 | 0.381 | 0.517 | 0.535 | 0.571 | 0.586 | 0.431 | 1.16 | 1.17 | 1.23 | 1.34 | 1.23 | 0.387
26 | EKVX | 1.1 | 1.06 | 1.05 | 0.97 | 1.43 | 0.942 | 0.934 | 0.774 | 0.86 | 0.544 | 0.49 | 0.561 | 0.584 | 0.491 | 0.826 | 0.755 | 0.773 | 1 | 0.833 | 0.787
27 | NCI-H460 | 1.69 | 0.603 | 0.968 | 0.711 | 0.771 | 0.575 | 0.393 | 0.418 | 0.447 | 0.445 | 0.499 | 0.488 | 0.535 | 0.437 | 0.446 | 0.467 | 0.372 | 0.441 | 0.357 | 0.454
